Test results published in US20260042827A1, “ANTI-WT1 ANTIGEN-BINDING PROTEINS AND USES THEREOF” (UNIVERSITY HEALTH NETWORK, priority 2022, published 2026).
Changes are numbered by the printed parent chain.

Tests used:
DP2 = target: T1, DP2 (Homo sapiens, UniProt P04440+P20036, A65V/A84D/A85E/K98E); assay: T2 cell-based competitive binding assay; details: T2 cells transduced with DP2; reference peptide Oxy271-287
T1 sequence (P20036 29-260): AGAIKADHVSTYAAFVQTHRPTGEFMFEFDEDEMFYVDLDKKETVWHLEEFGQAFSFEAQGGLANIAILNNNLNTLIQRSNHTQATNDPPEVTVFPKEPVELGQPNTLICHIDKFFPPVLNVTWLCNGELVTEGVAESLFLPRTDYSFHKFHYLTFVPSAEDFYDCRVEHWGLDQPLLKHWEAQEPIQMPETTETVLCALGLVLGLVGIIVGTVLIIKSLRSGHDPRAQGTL
T1 sequence (P04440 30-258 A65V/A84D/A85E/K98E): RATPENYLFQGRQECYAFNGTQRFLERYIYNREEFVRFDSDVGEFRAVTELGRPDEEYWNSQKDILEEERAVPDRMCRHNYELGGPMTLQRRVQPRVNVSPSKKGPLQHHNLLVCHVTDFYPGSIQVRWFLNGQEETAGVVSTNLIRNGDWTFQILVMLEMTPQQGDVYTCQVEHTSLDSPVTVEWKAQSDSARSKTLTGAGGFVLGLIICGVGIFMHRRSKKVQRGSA

DP4 = target: T2, DP4 (Homo sapiens, UniProt P04440+P20036); assay: T2 cell-based competitive binding assay; details: T2 cells transduced with DP4; reference peptide Oxy271-287
T2 construct: expressed in transfected cells; host or cells: T2 cells, retrovirally transduced (pMX vector)
T2 sequence (P20036 29-260): T1 sequence (P20036 29-260)
T2 sequence (P04440 30-258): T1 sequence (P04440 30-258 A65V/A84D/A85E/K98E) with V36A, D55A, E56A, E69K

Row | Sequence | IC50 value, displacement of reference peptide (DP2) | IC50 value, displacement of reference peptide (DP4)
1 | CMTWNQMNL [WT1235-243, known HLA-A2 restricted peptide, negative control, reference compound] | failed to displace reference peptide at any tested concentration | failed to displace reference peptide at any tested concentration
2 | PGCNKRYFKLSHLQMHSRKHT [WT1328-348] | comparable to TT947-967 | comparable to TT947-967
